Measured values reported in patent US20090324509A1, “INSECTICIDAL COMPOSITION” (LIVIE BIOPESTICIDES LIMITED, priority 2006, published 2009).

Experiments:
Type in all cases: in vivo
[1] = test system: Deer Tick (Ixodes ricinus); experiment: Potter tower spray bioassay on adult arthropods, mortality; details: 1.0 ml/pot, adults, room temperature; % of negative control
Description: (§1) The IGR's Methoprene and Diflubenzuron were sources as WHO standard preparations at 20 mg/l technical from WHO, Geneva, and used as positive controls or mixtures (50:50) with 5.0% p-cymene.
(§2) Laboratory colonies of the cat flea (Ctenocephalides felis) and the Deer Tick (Ixodes ricinus) were used in bioassays undertaken at room temperature.
(§3) Bioassays consisted of plastic pots with a netting cover holding batches of 10 adult insects of each species being placed under a potter tower which then sprayed a fine particulate aerosol of even rate. Application rates were always 1.0 ml/pot which is sufficient to wet the inner surface without leaving free liquid residues. After exposure to the treatment or a 5% ethanol control, arthropods were then transferred to a clean plastic holding pot and held at room temperature for 3 days with mortality scored after 24 & 72 hours. Mortality was calculated as % of negative control.

[2] = test system: cat flea (Ctenocephalides felis); experiment: as above; details: 1.0 ml/pot, adults, room temperature; % of negative control
Description: as §1, §2, §3

[3] = test system: a range of pests including Musca domestica, Periplaneta Americana, Blatella germanica and others; experiment: Tests of insecticidal activity of p-cymene against a range of pests; details: 15 listed pest species

Question: For Cc1ccc(C(C)C)cc1 [p-cymene], which 24 hours mortality [1] is on record?
Answer: 28%

Question: What about the 72 hours mortality [1] of the same compound?
Answer: 55%

Question: And the 24 hours mortality [2]?
Answer: 76%

Question: What about the 72 hours mortality [2] of the same compound?
Answer: 88%

Question: What about the insecticidal activity [3] of the same compound?
Answer: broad spectrum insecticidal activity
